According to patent US20240383875A1, “Benzimidazole Pyridine Derivatives” (Hoffmann-La Roche Inc., priority 2022, published 2024):

Key:
Assay type in all cases: biochemical
SIK3 = SIK3 (Homo sapiens, UniProt Q9Y2K2); assay: Enzymatic activity assay SIK3, RapidFire mass spectrometry (phosphorylation of CHK-peptide); conditions: RapidFire MS, inhibition of SIK3; read-out: SIK3 RF IC50
Method: (§1) Assay description SIK1-3, RapidFire:
(§2) In the presence of SIK2 (resp. SIK1 or SIK3) and ATP the CHK-peptide ([…] with C-terminal arginine amide modification) were phosphorylated at one of the four feasible serine's. Only one phosphorylation is observed under the assay conditions. 60 nl of each compound dilution series (12 point; dilution factor 3, generally 30 μM to 170 pM) in DMSO were transferred by acoustic dispensing to the assay plate and 30 min pre-incubated (ambient temperature) after the addition of 5 μl SIK1 (5 nM) resp. 5 μl SIK2 (0.5 nM) or 7 μl SIK3 (1.5 nM) in assay-buffer (12.5 mM HEPES (pH 7.0), 10 mM magnesium acetate, 0.005% BSA). 10 μM CHK-peptide solution and 5 μl 100 μM ATP for SIK1 & SIK2 resp. 3 μl for SIK3 in assay-buffer were added and incubated ambient for 45 min. 40 μl 0.125% formic acid in water were added to quench the reaction. RapidFire (RF) Mass Spectrometry was utilized for data generation as described below. The multiple charged species (3-5 charges) for the phosphorylated and non-phosphorylated form measured by MRM (Multiple Reaction Monitoring; API5000 or 6500+) or EIC (Extracted Ion Current; QToF) were summed up and the ratio calculated (sum phosphorylated species/sum all species) for data evaluation. Normalization was performed by Genedata software based on the non-inhibition control DMSO and the commercially available SIK inhibitor @ 1 μM YKL-05-099 (CAS number 1936529-65-5). The results of the assay are expressed in half-maximal inhibitory concentrations (IC50s) and are summarized below in Table 1.
(§3) Samples were aspirated by vacuum for max. 600 ms and loaded to C4-cartridge (Agilent; #G9203A) for 3000 ms@1.5 ml/min with 0.1% formic acid in water. Afterwards samples were transferred to the APT5000 (APT6500+) or QToF mass spectrometer for 4000 ms@1.25 ml/min with 90% acetonitrile; 10% water; 0.007% TFA; 0.093 formic acid. The cartridge was reconditioned for additional 500 ms with 0.1% formic acid in water
(§4) All MS analyses using the following MS-setup in MRM mode: Electrospray positive; Ion Spray Voltage: 4000V; Temperature: 550° C.; Collision Gas: 5; Curtain Gas: 15; Gas1: 40; Gas 2: 42; EP: 10
(§5) MS-Setup Agilent QToF 6545
(§6) All MS analyses using the following MS-setup in Mode MS: Dual AJS Electrospray positive; VCap: 3000V; Drying & Sheath gas: 340° C.@81/min; Nebulizer: 60 psig; Nozzle Voltage: 2000V; Fragmentor: 130V; Skimmer: 35V; Oct1 RF Vpp: 700V; Ref masses on@5spectra/s

SIK1 = SIK1 (Homo sapiens, UniProt P57059); assay: Enzymatic activity assay SIK1, RapidFire mass spectrometry (phosphorylation of CHK-peptide); conditions: RapidFire MS, inhibition of SIK1; read-out: SIK1 RF IC50
Sequence of SIK1 (P57059 whole entry): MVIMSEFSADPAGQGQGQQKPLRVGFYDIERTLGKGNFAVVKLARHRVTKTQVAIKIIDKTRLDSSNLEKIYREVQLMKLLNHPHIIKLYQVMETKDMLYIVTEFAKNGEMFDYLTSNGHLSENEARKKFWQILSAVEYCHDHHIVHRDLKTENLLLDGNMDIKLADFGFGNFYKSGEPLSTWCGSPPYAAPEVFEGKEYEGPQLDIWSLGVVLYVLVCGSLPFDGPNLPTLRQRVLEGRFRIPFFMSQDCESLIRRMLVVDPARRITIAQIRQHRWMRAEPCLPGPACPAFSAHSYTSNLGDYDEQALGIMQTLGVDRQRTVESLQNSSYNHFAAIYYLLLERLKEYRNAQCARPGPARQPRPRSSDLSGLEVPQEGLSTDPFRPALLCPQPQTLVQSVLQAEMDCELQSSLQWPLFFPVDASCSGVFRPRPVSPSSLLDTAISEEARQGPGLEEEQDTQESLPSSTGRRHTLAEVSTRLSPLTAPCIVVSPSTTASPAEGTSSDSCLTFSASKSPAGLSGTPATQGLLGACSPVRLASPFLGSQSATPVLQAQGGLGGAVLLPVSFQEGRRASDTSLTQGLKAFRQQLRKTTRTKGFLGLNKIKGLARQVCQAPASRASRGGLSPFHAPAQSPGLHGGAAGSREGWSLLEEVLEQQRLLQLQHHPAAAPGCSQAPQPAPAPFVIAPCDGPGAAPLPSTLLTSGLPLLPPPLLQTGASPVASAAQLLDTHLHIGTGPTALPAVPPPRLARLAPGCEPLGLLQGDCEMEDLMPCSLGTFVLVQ
Method: as §1, §2, §3, §4, §5, §6

SIK2 = SIK2 (Homo sapiens, UniProt Q9H0K1); assay: Enzymatic activity assay SIK2, RapidFire mass spectrometry (phosphorylation of CHK-peptide); conditions: RapidFire MS, inhibition of SIK2; read-out: SIK2 RF IC50
Sequence of SIK2 (Q9H0K1 whole entry): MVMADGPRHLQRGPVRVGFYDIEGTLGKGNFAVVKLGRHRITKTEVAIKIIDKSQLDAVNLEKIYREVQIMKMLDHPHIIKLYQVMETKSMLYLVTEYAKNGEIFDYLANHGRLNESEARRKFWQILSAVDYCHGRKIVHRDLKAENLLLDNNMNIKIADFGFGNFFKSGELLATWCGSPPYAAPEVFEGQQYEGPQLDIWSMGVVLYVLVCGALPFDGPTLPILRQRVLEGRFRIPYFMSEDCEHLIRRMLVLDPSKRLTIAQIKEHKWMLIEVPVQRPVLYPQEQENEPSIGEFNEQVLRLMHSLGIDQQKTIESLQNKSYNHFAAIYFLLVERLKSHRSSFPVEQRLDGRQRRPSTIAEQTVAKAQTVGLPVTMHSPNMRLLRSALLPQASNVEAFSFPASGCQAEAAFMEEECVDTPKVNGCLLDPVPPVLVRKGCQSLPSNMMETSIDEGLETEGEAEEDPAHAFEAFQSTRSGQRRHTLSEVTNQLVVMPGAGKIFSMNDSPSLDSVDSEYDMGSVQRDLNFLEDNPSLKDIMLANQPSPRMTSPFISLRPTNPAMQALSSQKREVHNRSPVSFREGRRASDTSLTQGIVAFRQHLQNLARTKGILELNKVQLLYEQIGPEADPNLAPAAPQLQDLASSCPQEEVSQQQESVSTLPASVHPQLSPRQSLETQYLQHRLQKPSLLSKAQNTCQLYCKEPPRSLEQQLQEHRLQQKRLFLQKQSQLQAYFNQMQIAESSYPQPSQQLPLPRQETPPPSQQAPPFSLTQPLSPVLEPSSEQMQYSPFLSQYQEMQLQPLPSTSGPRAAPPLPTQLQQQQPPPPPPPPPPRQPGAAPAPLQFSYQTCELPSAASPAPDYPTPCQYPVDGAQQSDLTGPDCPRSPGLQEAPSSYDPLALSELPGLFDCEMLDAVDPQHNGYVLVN
Method: as §1
as §2, with “Only one phosphorylation is observed under the assay conditions. 60 nl of each compound dilution series (12 point; dilution factor 3, generally 30 μM to 170 pM) in DMSO were transferred by acoustic dispensing to the assay plate and 30 min pre-incubated (ambient temperature) after the addition of 5 μl SIK1 (5 nM) resp.” left out, “1936529-65-5).” for “1936529-65-5). The results of the assay are expressed in half-maximal inhibitory concentrations (IC50s) and are summarized below in Table 1.”
as §3, §4, §5, §6

Sequence of SIK3 (Q9Y2K2 whole entry): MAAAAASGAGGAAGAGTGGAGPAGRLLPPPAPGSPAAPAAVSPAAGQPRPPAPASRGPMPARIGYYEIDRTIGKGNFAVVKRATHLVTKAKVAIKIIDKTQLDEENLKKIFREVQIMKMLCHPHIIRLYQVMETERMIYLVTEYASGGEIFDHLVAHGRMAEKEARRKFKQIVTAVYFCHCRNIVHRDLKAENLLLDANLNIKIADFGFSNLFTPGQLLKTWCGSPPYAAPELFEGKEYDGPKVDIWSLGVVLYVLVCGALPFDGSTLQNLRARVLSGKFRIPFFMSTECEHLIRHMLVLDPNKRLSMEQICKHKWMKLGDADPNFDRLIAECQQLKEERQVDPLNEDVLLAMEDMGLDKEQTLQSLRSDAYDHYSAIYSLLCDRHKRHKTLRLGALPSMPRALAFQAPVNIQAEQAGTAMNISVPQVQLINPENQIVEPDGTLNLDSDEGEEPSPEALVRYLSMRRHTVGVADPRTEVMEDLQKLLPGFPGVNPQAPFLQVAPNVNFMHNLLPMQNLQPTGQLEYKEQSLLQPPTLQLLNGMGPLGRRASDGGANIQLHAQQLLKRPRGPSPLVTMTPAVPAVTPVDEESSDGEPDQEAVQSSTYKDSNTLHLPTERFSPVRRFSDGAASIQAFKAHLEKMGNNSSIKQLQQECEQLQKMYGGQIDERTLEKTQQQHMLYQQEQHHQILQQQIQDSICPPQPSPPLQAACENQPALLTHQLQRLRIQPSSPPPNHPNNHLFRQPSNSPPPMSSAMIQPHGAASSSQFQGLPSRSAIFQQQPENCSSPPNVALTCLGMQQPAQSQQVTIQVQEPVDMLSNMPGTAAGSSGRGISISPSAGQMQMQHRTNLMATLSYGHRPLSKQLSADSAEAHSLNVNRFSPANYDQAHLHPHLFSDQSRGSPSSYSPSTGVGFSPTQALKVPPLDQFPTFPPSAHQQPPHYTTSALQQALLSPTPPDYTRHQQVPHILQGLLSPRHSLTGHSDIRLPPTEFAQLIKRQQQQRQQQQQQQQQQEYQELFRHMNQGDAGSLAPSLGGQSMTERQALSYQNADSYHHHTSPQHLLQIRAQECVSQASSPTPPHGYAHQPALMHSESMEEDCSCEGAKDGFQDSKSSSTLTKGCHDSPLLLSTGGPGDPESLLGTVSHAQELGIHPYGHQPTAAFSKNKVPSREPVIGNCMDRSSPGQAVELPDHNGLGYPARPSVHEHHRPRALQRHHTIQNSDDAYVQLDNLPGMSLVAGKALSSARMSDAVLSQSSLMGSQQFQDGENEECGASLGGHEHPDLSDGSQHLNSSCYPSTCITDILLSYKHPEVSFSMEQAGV

IC50 (SIK3) [nM]	IC50 (SIK1) [nM]	IC50 (SIK2) [nM]	Structure (SMILES)
1.2	223	3.2	COc1ccnnc1Nc1ccc2c(c1)ncn2-c1ccc(C(C)O)c(-n2nc(C#N)cc2C)n1 (centres unmarked) [Example 160, 1-[3-(1-Hydroxyethyl)-6-[5-[(4-methoxypyridazin-3-yl)amino]benzimidazol-1-yl]-2-pyridyl]-5-methyl-pyrazole-3-carbonitrile]
0.7	242	1.8	Cc1ccc(Nc2ccc3c(c2)ncn3-c2ccc(C(C)O)c(-n3nc(C(F)F)cc3C(F)F)n2)nn1 (centres unmarked) [Example 248, 1-[2-[3,5-Bis(difluoromethyl)pyrazol-1-yl]-6-[5-[(6-methylpyridazin-3-yl)amino]benzimidazol-1-yl]-3-pyridyl]ethanol]
51.3	113	26	Cc1cc(C#N)nn1-c1nc(-n2cnc3cc(N4CC[C@H]5CNC(=O)[C@H]54)ccc32)ccc1C(C)O (stereo partly drawn) [Example 330, 1-[6-[5-[(3aS,6aS)-6-oxo-2,3,3a,4,5,6a-hexahydropyrrolo[2,3-c]pyrrol-1-yl]benzimidazol-1-yl]-3-(1-hydroxyethyl)-2-pyridyl]-5-methylpyrazole-3-carbonitrile]
1.7	19	1	Cc1ccc(Nc2cc3ncn(-c4ccc(C(C)O)c(-n5nc(OC(F)F)cc5C)n4)c3cc2OC2COC2)nn1 (centres unmarked) [Example 357, 1-[2-[3-(difluoromethoxy)-5-methyl-pyrazol-1-yl]-6-[5-[(6-methylpyridazin-3-yl)amino]-6-(oxetan-3-yloxy)benzimidazol-1-yl]-3-pyridyl]ethanol]
1.6	12	1.8	Cc1cc(C#N)nn1-c1nc(-n2cnc3cc(Nc4nccnn4)ccc32)ccc1C(C)O (centres unmarked) [Example 119, 1-[3-(1-Hydroxyethyl)-6-[5-(1,2,4-triazin-3-ylamino)benzimidazol-1-yl]-2-pyridyl]-5-methyl-pyrazole-3-carbonitrile]
90	137	77	Cc1cc(C#N)nn1-c1nc(-n2cnc3cc(N4CCCC45COC5)ccc32)ccc1C(C)O (centres unmarked) [Example 296, 1-[3-(1-hydroxyethyl)-6-[5-(2-oxa-5-azaspiro[3.4]octan-5-l)benzimidazol-1-yl]-2-pyridyl]-5-methyl-pyrazole-3-carbonitrile]
9.3	3390	35.4	Cc1ccc(Oc2ccc3c(c2)ncn3-c2ccc(C(C)O)c(-c3cn(CC(F)(F)F)nc3C)n2)nn1 (centres unmarked) [Example 351, 1-[6-[5-(6-methylpyridazin-3-yl)oxybenzimidazol-1-yl]-2-[3-methyl-1-(2,2,2-trifluoroethyl)pyrazol-4-yl]-3-pyridyl]ethanol]
18.6	1800		Cc1ccc(Nc2ccc3c(c2)ncn3-c2ccc([C@H](C)O)c(-n3nc(C#N)cc3C)n2)nn1 [Example 109, 5-Methyl-1-[6-[5-[(6-methylpyridazin-3-yl)amino]benzimidazol-1-yl]-3-[(1S)-1-hydroxyethyl]-2-pyridyl]pyrazole-3-carbonitrile]
0.6	59		Cc1ccc(Nc2ccc3c(c2)ncn3-c2ccc(C(C)O)c(-n3nc(C#N)cc3C)n2)nn1 (centres unmarked) [Example 64, 1-[3-(1-Hydroxyethyl)-6-[5-[(6-methylpyridazin-3-yl)amino]benzimidazol-1-yl]-2-pyridyl]-5-methyl-pyrazole-3-carbonitrile]
0.2	26		Cc1ccc(Nc2ccc3c(c2)ncn3-c2ccc([C@@H](C)O)c(-n3nc(C#N)cc3C)n2)nn1 [Example 110, 5-Methyl-1-[6-[5-[(6-methylpyridazin-3-yl)amino]benzimidazol-1-yl]-3-[(1R)-1-hydroxyethyl]-2-pyridyl]pyrazole-3-carbonitrile]
1060		1240	Cc1ccc(Nc2ccc3c(c2)ncn3-c2ccc(C(C)O)c(-c3cccnc3-c3cn[nH]c3)n2)nn1 (centres unmarked) [Example 186, 1-[6-[5-[(6-Methylpyridazin-3-yl)amino]benzimidazol-1-yl]-2-[2-(1H-pyrazol-4-yl)-3-pyridyl]-3-pyridyl]ethanol]

The next lines start with the compound.

Structure (SMILES)	IC50 (SIK3) [nM]	IC50 (SIK1) [nM]	IC50 (SIK2) [nM]
Cc1ccc(Nc2ccc3c(c2)ncn3-c2ccc(C(C)O)c(N3C[C@H](C#N)C[C@@H]3C)n2)nn1 (stereo partly drawn) [Example 242, (3R,5S)-1-[3-(1-hydroxyethyl)-6-[5-[(6-methylpyridazin-3-yl)amino]benzimidazol-1-yl]-2-pyridyl]-5-methyl-pyrrolidine-3-carbonitrile; formic acid]	1.8	843	9.5
CC(O)c1ccc(-n2cnc3cc(OCCN4CCOCC4)ccc32)nc1Nc1ccccc1 (centres unmarked) [Example 55, 1-[2-Anilino-6-[5-(2-morpholinoethoxy)benzimidazol-1-yl]-3-pyridyl]ethanol]	130	1290	103
Cc1cc(C#N)nn1-c1nc(-n2cnc3cc(N4CCCC4C(=O)N(C)C)ccc32)ccc1C(C)O (centres unmarked) [Example 312, 1-[1-[6-(3-cyano-5-methyl-pyrazol-1-yl)-5-(1-hydroxyethyl)-2-pyridyl]benzimidazol-5-yl]-N,N-dimethyl-pyrrolidine-2-carboxamide]	85.6	250	79.6
Cc1ccc(Nc2ccc3c(c2)ncn3-c2ccc(C(C)O)c(-c3cn(CC(C)(F)F)nc3C)n2)nn1 (centres unmarked) [Example 281, 1-[2-[1-(2,2-difluoropropyl)-3-methyl-pyrazol-4-yl]-6-[5-[(6-methylpyridazin-3-yl)amino]benzimidazol-1-yl]-3-pyridyl]ethanol]	1.2	46	0.6
COc1cc2ncn(-c3ccc([C@H](C)O)c(-c4cccc(C#N)c4)n3)c2cc1OC [Example 37, (S)-3-(6-(5,6-Dimethoxy-1H-benzo[d]imidazol-1-yl)-3-(l-hydroxyethyl)pyridin-2-yl)benzonitrile]	22.4	15	4.9
Cc1ccc(Nc2cc3ncn(-c4ccc([C@H](C)O)c(-n5nc(C#N)cc5C)n4)c3cc2OC(F)F)nn1 [Example 402, 1-[6-[6-(difluoromethoxy)-5-[(6-methylpyridazin-3-yl)amino]benzimidazol-1-yl]-3-[(1S)-1-hydroxyethyl]-2-pyridyl]-5-methyl-pyrazole-3-carbonitrile]	0.3	5	0.2
COc1cc2ncn(-c3ccc(C(C)O)c(-c4ccc(F)cc4OC)n3)c2cc1OC (centres unmarked) [Example 17, 1-(6-(5,6-Dimethoxy-1H-benzo[d]imidazol-1-yl)-2-(4-fluoro-2-methoxyphenyl)pyridin-3-yl)ethan-1-ol]	1140	327	155
Cc1ccc(Nc2ccc3ncn(-c4ccc(C(C)O)c(-n5ncc(C#N)c5C)n4)c3c2)nn1 (centres unmarked) [Example 150, 1-[3-(1-Hydroxyethyl)-6-[6-[(6-methylpyridazin-3-yl)amino]benzimidazol-1-yl]-2-pyridyl]-5-methyl-pyrazole-4-carbonitrile]	33.5	24400	207
